In the NIST ThermoML archive (doi:10.1016/j.jct.2014.07.023):
Several values for one entry are separate records, joined by “and”; a condition that tells them apart may be missing. Identical values can stand only once. Numbers after ± are expanded uncertainties.

Experiments:
[1] = molar heat capacity at constant pressure; settings: 101.33 kPa, Liquid, Small sample (50 mg) DSC
[2] = molar heat capacity at constant pressure; xn = mol fraction of the nth substance listed; settings: 100 kPa, Liquid, Small sample (50 mg) DSC, x2 = 0

Row | SMILES | molar heat capacity at constant pressure ([1]; 293.15 K) [J/K/mol] | molar heat capacity at constant pressure ([1]; 298.15 K) | molar heat capacity at constant pressure ([1]; 303.15 K) [J/K/mol] | molar heat capacity at constant pressure ([1]; 308.15 K) [J/K/mol] | molar heat capacity at constant pressure ([1]; 313.15 K) [J/K/mol] | molar heat capacity at constant pressure ([1]; 318.15 K) [J/K/mol] | molar heat capacity at constant pressure ([1]; 323.15 K) [J/K/mol] | molar heat capacity at constant pressure ([2]; 293.15 K) [J/K/mol] | molar heat capacity at constant pressure ([2]; 298.15 K) [J/K/mol] | molar heat capacity at constant pressure ([2]; 303.15 K) [J/K/mol] | molar heat capacity at constant pressure ([2]; 308.15 K) [J/K/mol] | molar heat capacity at constant pressure ([2]; 313.15 K) [J/K/mol] | molar heat capacity at constant pressure ([2]; 318.15 K) [J/K/mol] | molar heat capacity at constant pressure ([2]; 323.15 K) [J/K/mol]
1 | CCC(O)CO (stereo not drawn) [1,2-butanediol] | 228.1 ± 9.6 | 230.82 ± 9.8 J/K/mol and 230.8 ± 9.8 J/K/mol | 233.5 ± 9.9 | 236.21 ± 10 | 238.91 ± 10 | 241.52 ± 10 | 244.23 ± 10 | – | – | – | – | – | – | –
2 | CC(O)CCO (stereo not drawn) [1,3-butanediol] | 215.84 ± 9.2 | 218.89 ± 9.3 J/K/mol and 218.9 ± 9.3 J/K/mol | 222.06 ± 9.5 | 225.21 ± 9.6 | 228.37 ± 9.7 | 231.61 ± 9.8 | 234.86 ± 10 | – | – | – | – | – | – | –
3 | OCCCCO [1,4-butanediol] | 201.15 ± 8.6 | 203.79 ± 8.7 J/K/mol and 203.76 ± 8.7 J/K/mol | 206.56 ± 8.7 | 209.44 ± 8.9 | 212.33 ± 9 | 215.39 ± 9.1 | 218.54 ± 9.3 | – | – | – | – | – | – | –
4 | CC(O)C(C)O (stereo not drawn) [2,3-butanediol] | 233.95 ± 9.9 | 236.66 ± 10 J/K/mol and 236.63 ± 10 J/K/mol | 239.36 ± 10 | 242.07 ± 10 | 244.77 ± 10 | 247.47 ± 11 | 250.18 ± 11 | – | – | – | – | – | – | –
5 | CO [methanol] | 80.46 ± 3.4 | 81.38 ± 3.5 J/K/mol and 81.39 ± 3.5 J/K/mol | 82.38 ± 3.5 | 83.44 ± 3.5 | 84.56 ± 3.6 | 85.78 ± 3.7 | 87.03 ± 3.7 | – | – | – | – | – | – | –
6 | CO [methanol] + CC(O)C(C)O | – | – | – | – | – | – | – | 80.46 ± 3.4 | 81.39 ± 3.5 | 82.38 ± 3.5 | 83.44 ± 3.5 | 84.56 ± 3.6 | 85.78 ± 3.7 | 87.03 ± 3.7
7 | CO [methanol] + CC(O)CCO | – | – | – | – | – | – | – | 80.46 ± 3.4 | 81.39 ± 3.5 | 82.38 ± 3.5 | 83.44 ± 3.5 | 84.56 ± 3.6 | 85.78 ± 3.7 | 87.03 ± 3.7
8 | CO [methanol] + CCC(O)CO | – | – | – | – | – | – | – | 80.46 ± 3.4 | 81.39 ± 3.5 | 82.38 ± 3.5 | 83.44 ± 3.5 | 84.56 ± 3.6 | 85.78 ± 3.7 | 87.03 ± 3.7
9 | CO [methanol] + OCCCCO | – | – | – | – | – | – | – | 80.46 ± 3.4 | 81.39 ± 3.5 | 82.38 ± 3.5 | 83.44 ± 3.5 | 84.56 ± 3.6 | 85.78 ± 3.7 | 87.03 ± 3.7
